Values joined by “and” are separate entries in the source; they are usually repeats but may differ in a detail not shown here. Equal values may be shown once.
How the values were obtained:
Raw 264.7 cells = assay: Cell viability measurement (MTS); type: cell-based
Method: Raw 264.7 cells were plated in a 96-well cell culture plate (50,000 cells/well). The cell culture media were removed from the 96-well cell culture plate. 100 μl of MTS reagent (CellTiter 96 AQueous One Solution Cell Proliferation Assay, Promega) was added to each well and the reaction was allowed to proceed at 37° C. for 20 min. After the reaction was finished, the cell viability were determined by measuring the absorbance at a wavelength of 490 nm.

mice [1] = assay: Writhing test (1% acetic acid intraperitoneally); type: in vivo; details: for numbers of stretching and writhing movements: 30 min pretreatment
Method: In accordance with the most common method for measuring the analgesic efficacies of the test substances in the peripheral nerve based on abdominal contraction responses as indices, 1% acetic acid was administered intraperitoneally to mice to induce damage or pain of the abdominal peripheral vessels. After acetic acid administration, the behavioral profiles of the mice were observed and the numbers of stretching and writhing movements of the mice were counted to determine the analgesic efficacies of the test substances.
30 min after pretreatment with the compound 3 (E-S) at concentrations of 10, 20, 40, and 80 mg/kg, writhing test was conducted to assess the analgesic efficacy of the compound 3. As a result, the analgesic efficacy of the compound 3 was concentration-dependent (FIG. 4a and Table 4). The analgesic efficacy of the compound 4 (E-A) was assessed in the same manner as that of the compound 3.

mice [2] = assay: Formalin test (5% formalin, hind foot sole); type: in vivo; set-up: formalin test pain response: unit not given beside the values; details: for analgesic efficacy in formalin test (in words): 10, 20, 40, 80 mg/kg
Method: 5% formalin was injected subcutaneously into the soles of the hind feet of mice. The mice licked their soles and shook their paws owing to formalin-induced pain. At 20-40 min post-injection (2nd phase), the mice again licked their soles or shook their paws. Pain felt for 5 min post-injection (1st phase) is the same level as the sensation of pain when the body is harmfully stimulated. Pain between 20 and 40 min (2nd phase) is mainly tonic inflammatory pain and is known to be very similar to pain after a big surgical operation.
30 min after pretreatment with the compound 3 (E-S) at concentrations of 10, 20, 40, and 80 mg/kg, formalin test was conducted to assess the analgesic efficacy of the compound 3. […] The analgesic efficacy of the compound 4 (E-A) was assessed in the same manner as that of the compound 3.

[3] = tested on: streptozotocin-induced diabetic mice; assay: Von-frey test in diabetic neuropathy models; type: in vivo; set-up: threshold values (Von-frey test): unit not given here; details: for analgesic efficacy, Von-frey test (in words): oral 10, 20, 40, 80 mg/kg; for concentration of highest analgesic efficacy, Von-frey test: oral 10, 20, 40, 80 mg/kg tested
Method: 65 mg/kg of streptozotocin (Sigma Corp., USA) was dissolved at a concentration of 15 mg/ml in 0.1 M citrate buffer at pH 4.5 and the resulting solution was administered intraperitoneally to mice. Blood glucose levels were measured 1 week after administration and streptozotocin-induced diabetic mice were chosen.
After damage to the sciatic nerve, allodynia induced by the mechanical stimulus was measured. Mice were housed in acrylic chambers on a steel mesh floor and acclimated for ≥60 min before testing. Continuous responses were evaluated using Von-frey filaments by the up-down method. The filaments were brought into vertical contact with the affected left soles and the contact was maintained for 5-6 sec. The response was considered to be positive when the mouse rapidly avoided the stimulus, startled or licked its sole. The Von-frey filaments were first used to stimulate the mice.
The inhibitory effects of the test substances on pain were determined in diabetic neuropathy models. To this end, after oral administration of each test substance at concentrations of 10, 20, 40, and 80 mg/kg, threshold values were measured at different periods of time through Von-frey test.

mice [4] = assay: Hot-plate test; type: in vivo; details: for response time to the thermal stimulus (hot-plate): 30 min pretreatment, in s (unit assumed); for analgesic efficacy in hot-plate test (in words): 10, 20, 40, 80 mg/kg
Method: Hot-plate test was conducted using an electric heater to measure the analgesic activity of the test substances on the acute thermal stimulus. Experimental animals were injected with the test drugs and a vehicle (control) and were sequentially placed on an electric heater (hot-plate). The response time to the thermal stimulus ([…]) was defined as the time until the experimental animal licked their paws. Male mice weighing 22-25 g, aged 4-5 weeks, were used as the test animals (10 per group).
30 min after pretreatment with the compound 3 (E-S) at concentrations of 10, 20, 40, and 80 mg/kg, hot-plate test was conducted to assess the analgesic efficacy of the compound 3. […] The analgesic efficacy of the compound 4 (E-A) was assessed in the same manner as that of the compound 3.

Akt = assay: Western blot analysis, Akt signaling by LPS signals; type: cell-based
Method: Cells were harvested, washed with 1×PBS, and suspended by adding a mixture of a protein extraction buffer (150 mM NaCl, 50 mM Tris-HCl pH 7.4, 5 mM EDTA pH 8.0, 1% NP-40) and a protease inhibitor cocktail. Then, the reaction was allowed to proceed in ice for 20 min, sonicated, and centrifuged (13,000 rpm, 30 min). The concentration of proteins in the supernatant was quantified by a BCA protein assay and proteins were separated on the basis of size on an SDS-PAGE gel. Thereafter, proteins were transferred to a PVDF membrane and blocked with skim milk for 1 h. Primary and secondary antibodies were coupled and photosensitized with ECL solution to determine the expression levels of desired proteins.

[5] = 10 mg/kg, first column group (1st phase, not given)
[6] = 10 mg/kg, second column group (2nd phase, not given)
[7] = 20 mg/kg, first column group (1st phase, not given)
[8] = 20 mg/kg, second column group (2nd phase, not given)
[9] = 40 mg/kg, first column group (1st phase, not given)
[10] = 40 mg/kg, second column group (2nd phase, not given)
[11] = 80 mg/kg, first column group (1st phase, not given)
[12] = 80 mg/kg, second column group (2nd phase, not given)

## CC(=O)Oc1ccccc1C(=O)NC1=NCC2c3ccccc3Cc3ccccc3N12 (stereo not shown) [E-A, 2-((9,13b-dihydro-1H-dibenzo[c,f]imidazo[1,5-a]azepin-3-yl)carbamoyl)phenyl acetate]
Raw 264.7 cells
  cell toxicity (cell viability, MTS): no cell toxicities were observed
Mice [1]; 10 mg/kg
  numbers of stretching and writhing movements: 8.25
Mice [1]; 20 mg/kg
  numbers of stretching and writhing movements: 13.75
Mice [1]; 40 mg/kg
  numbers of stretching and writhing movements: 11.25
Mice [1]; 80 mg/kg
  numbers of stretching and writhing movements: 12.25
Mice [1]; 10, 20, 40, 80 mg/kg tested
  concentration of best analgesic efficacy in writhing test: 10 mg/kg
Mice [2]; [5]
  formalin test pain response: 73.0
Mice [2]; [6]
  formalin test pain response: 102.0
Mice [2]; [7]
  formalin test pain response: 54.7
Mice [2]; [8]
  formalin test pain response: 83.5
Mice [2]; [9]
  formalin test pain response: 62.0
Mice [2]; [10]
  formalin test pain response: 60.0
Mice [2]; [11]
  formalin test pain response: 61.5
Mice [2]; [12]
  formalin test pain response: 60.0
Mice [2]
  analgesic efficacy in formalin test (in words): observed in the 2n^d phase
[3]; oral 10 mg/kg, 1 h
  threshold values (Von-frey test): 0.260
[3]; oral 10 mg/kg, 2 h
  threshold values (Von-frey test): 0.263
[3]; oral 10 mg/kg, 3 h
  threshold values (Von-frey test): 0.324
[3]; oral 10 mg/kg, 4 h
  threshold values (Von-frey test): 0.286
[3]; oral 10 mg/kg, 5 h
  threshold values (Von-frey test): 0.225
[3]; oral 10 mg/kg, basal
  threshold values (Von-frey test): 0.286
[3]; oral 20 mg/kg, 1 h
  threshold values (Von-frey test): 0.263
[3]; oral 20 mg/kg, 2 h
  threshold values (Von-frey test): 0.324
[3]; oral 20 mg/kg, 3 h
  threshold values (Von-frey test): 0.321
[3]; oral 20 mg/kg, 4 h
  threshold values (Von-frey test): 0.247
[3]; oral 20 mg/kg, 5 h
  threshold values (Von-frey test): 0.225
[3]; oral 20 mg/kg, basal
  threshold values (Von-frey test): 0.186
[3]; oral 40 mg/kg, 1 h
  threshold values (Von-frey test): 0.286
[3]; oral 40 mg/kg, 2 h
  threshold values (Von-frey test): 0.458
[3]; oral 40 mg/kg, 3 h
  threshold values (Von-frey test): 0.419
[3]; oral 40 mg/kg, 4 h
  threshold values (Von-frey test): 0.391
[3]; oral 40 mg/kg, 5 h
  threshold values (Von-frey test): 0.186
[3]; oral 40 mg/kg, basal
  threshold values (Von-frey test): 0.247
[3]; oral 80 mg/kg, 1 h
  threshold values (Von-frey test): 0.391
[3]; oral 80 mg/kg, 2 h
  threshold values (Von-frey test): 0.391
[3]; oral 80 mg/kg, 3 h
  threshold values (Von-frey test): 0.247
[3]; oral 80 mg/kg, 4 h
  threshold values (Von-frey test): 0.286
[3]; oral 80 mg/kg, 5 h
  threshold values (Von-frey test): 0.186
[3]; oral 80 mg/kg, basal
  threshold values (Von-frey test): 0.208
[3]
  analgesic efficacy, Von-frey test (in words): concentration-dependent from 1 h after treatment and was maintained until 3 h after treatment
  concentration of highest analgesic efficacy, Von-frey test: 40 mg/kg and 80 mg/kg
Mice [4]; 10 mg/kg
  response time to the thermal stimulus (hot-plate): 9.58
Mice [4]; 20 mg/kg
  response time to the thermal stimulus (hot-plate): 14.98
Mice [4]; 40 mg/kg
  response time to the thermal stimulus (hot-plate): 17.42
Mice [4]; 80 mg/kg
  response time to the thermal stimulus (hot-plate): 18.30
Mice [4]
  analgesic efficacy in hot-plate test (in words): observed in the 2nd phase
Akt
  effect on Akt signaling by LPS signals: found to affect both MAPK signaling and Akt signaling by LPS signals and reduce the activity of proteins

## O=C(NC1=NCC2c3ccccc3Cc3ccccc3N12)c1ccccc1O (stereo not shown) [E-S, N-(9,13b-dihydro-1H-dibenzo[c,f]imidazo[1,5-a]azepin-3-yl)-2-hydroxybenzamide]
Raw 264.7 cells
  cell toxicity (cell viability, MTS): no cell toxicities were observed
Mice [1]; 10 mg/kg
  numbers of stretching and writhing movements: 33.75
Mice [1]; 20 mg/kg
  numbers of stretching and writhing movements: 29.75
Mice [1]; 40 mg/kg
  numbers of stretching and writhing movements: 23.75
Mice [1]; 80 mg/kg
  numbers of stretching and writhing movements: 12.75
Mice [1]; 10, 20, 40, 80 mg/kg
  analgesic efficacy in writhing test (in words): concentration-dependent
Mice [2]; [5]
  formalin test pain response: 66.25
Mice [2]; [6]
  formalin test pain response: 48.5
Mice [2]; [7]
  formalin test pain response: 60.5
Mice [2]; [8]
  formalin test pain response: 48.25
Mice [2]; [9]
  formalin test pain response: 60.5
Mice [2]; [10]
  formalin test pain response: 45.0
Mice [2]; [11]
  formalin test pain response: 52.0
Mice [2]; [12]
  formalin test pain response: 44.5
Mice [2]
  analgesic efficacy in formalin test (in words): observed in the 2nd phase
[3]; oral 10 mg/kg, 1 h
  threshold values (Von-frey test): 0.247
[3]; oral 10 mg/kg, 2 h
  threshold values (Von-frey test): 0.208
[3]; oral 10 mg/kg, 3 h
  threshold values (Von-frey test): 0.363
[3]; oral 10 mg/kg, 4 h
  threshold values (Von-frey test): 0.330
[3]; oral 10 mg/kg, 5 h
  threshold values (Von-frey test): 0.286
[3]; oral 10 mg/kg, basal
  threshold values (Von-frey test): 0.247
[3]; oral 20 mg/kg, 1 h
  threshold values (Von-frey test): 0.286
[3]; oral 20 mg/kg, 2 h
  threshold values (Von-frey test): 0.208
[3]; oral 20 mg/kg, 3 h
  threshold values (Von-frey test): 0.314
[3]; oral 20 mg/kg, 4 h
  threshold values (Von-frey test): 0.186
[3]; oral 20 mg/kg, 5 h
  threshold values (Von-frey test): 0.324
[3]; oral 20 mg/kg, basal
  threshold values (Von-frey test): 0.208
[3]; oral 40 mg/kg, 1 h
  threshold values (Von-frey test): 0.314
[3]; oral 40 mg/kg, 2 h
  threshold values (Von-frey test): 0.391
[3]; oral 40 mg/kg, 3 h
  threshold values (Von-frey test): 0.352
[3]; oral 40 mg/kg, 4 h
  threshold values (Von-frey test): 0.314
[3]; oral 40 mg/kg, 5 h
  threshold values (Von-frey test): 0.391
[3]; oral 40 mg/kg, basal
  threshold values (Von-frey test): 0.225
[3]; oral 80 mg/kg, 1 h
  threshold values (Von-frey test): 0.613
[3]; oral 80 mg/kg, 2 h
  threshold values (Von-frey test): 0.574
[3]; oral 80 mg/kg, 3 h
  threshold values (Von-frey test): 0.391
[3]; oral 80 mg/kg, 4 h
  threshold values (Von-frey test): 0.419
[3]; oral 80 mg/kg, 5 h
  threshold values (Von-frey test): 0.225
[3]; oral 80 mg/kg, basal
  threshold values (Von-frey test): 0.164
[3]
  analgesic efficacy, Von-frey test (in words): concentration-dependent until 1-2 h after treatment
  concentration of highest analgesic efficacy, Von-frey test: 80 mg/kg
Mice [4]; 10 mg/kg
  response time to the thermal stimulus (hot-plate): 8.64
Mice [4]; 20 mg/kg
  response time to the thermal stimulus (hot-plate): 13.34
Mice [4]; 40 mg/kg
  response time to the thermal stimulus (hot-plate): 15.52
Mice [4]; 80 mg/kg
  response time to the thermal stimulus (hot-plate): 19.30
Mice [4]
  analgesic efficacy in hot-plate test (in words): significant at 40 and 80 mg/kg
Akt; 100 uM
  phosphorylation of Akt by LPS: observed to decrease
